From PMC10682951, “Structure-function and rational design of a spider toxin Ssp1a at human voltage-gated sodium channel subtypes” (Frontiers in Pharmacology, 2023)
Bridge positions count the residues as written; N and C are the ends. Peptide text beside a SMILES is read from it.

Legend:
Format in all cases: cell-based
hNaV1.3 = target: T1, hNaV1.3 (Homo sapiens, UniProt Q9NY46); assay: Automated whole-cell patch-clamp (QPatch 16X), hNaV1.3; settings: for IC50: HEK293 cells expressing hNaV1.3 + β1 subunit, QPatch 16X, holding −80 mV, step to 0 mV, peptide incubated 2 min, 0.1% BSA, mean, SEM and n (3-12)
T1 construct: host or cells: HEK293
Procedure, shortened: (§1)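 HEK293 cells stably expressing the channel (human subtypes with β1 subunit), held at −80 mV; 2 min peptide pre-incubation, then 20 ms steps to 0 mV after a 200 ms −120 mV conditioning pulse. Extracellular pH 7.3 with 20 mM TEA-Cl, CsF-based pipette solution, 0.1% BSA; IC50 from four-parameter Hill fit.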

hNaV1.7 = target: T2, hNaV1.7 (Homo sapiens, UniProt Q15858); assay: Automated whole-cell patch-clamp (QPatch 16X), hNaV1.7; settings: for IC50: HEK293 cells expressing hNaV1.7 + β1 subunit, QPatch 16X, holding −80 mV, step to 0 mV, peptide incubated 2 min, 0.1% BSA, mean, SEM and n (3-9)
T2 construct: host or cells: HEK293
Procedure, shortened: as §1

hNaV1.2 = target: T3, hNaV1.2 (Homo sapiens, UniProt Q99250); assay: Automated whole-cell patch-clamp (QPatch 16X), hNaV1.2; settings: for IC50: HEK293 cells expressing hNaV1.2 + β1 subunit, QPatch 16X, holding −80 mV, step to 0 mV, peptide incubated 2 min, 0.1% BSA, mean, SEM and n (2-7)
T3 construct: host or cells: HEK293
Procedure, shortened: as §1

T1 sequence (Q9NY46 whole entry): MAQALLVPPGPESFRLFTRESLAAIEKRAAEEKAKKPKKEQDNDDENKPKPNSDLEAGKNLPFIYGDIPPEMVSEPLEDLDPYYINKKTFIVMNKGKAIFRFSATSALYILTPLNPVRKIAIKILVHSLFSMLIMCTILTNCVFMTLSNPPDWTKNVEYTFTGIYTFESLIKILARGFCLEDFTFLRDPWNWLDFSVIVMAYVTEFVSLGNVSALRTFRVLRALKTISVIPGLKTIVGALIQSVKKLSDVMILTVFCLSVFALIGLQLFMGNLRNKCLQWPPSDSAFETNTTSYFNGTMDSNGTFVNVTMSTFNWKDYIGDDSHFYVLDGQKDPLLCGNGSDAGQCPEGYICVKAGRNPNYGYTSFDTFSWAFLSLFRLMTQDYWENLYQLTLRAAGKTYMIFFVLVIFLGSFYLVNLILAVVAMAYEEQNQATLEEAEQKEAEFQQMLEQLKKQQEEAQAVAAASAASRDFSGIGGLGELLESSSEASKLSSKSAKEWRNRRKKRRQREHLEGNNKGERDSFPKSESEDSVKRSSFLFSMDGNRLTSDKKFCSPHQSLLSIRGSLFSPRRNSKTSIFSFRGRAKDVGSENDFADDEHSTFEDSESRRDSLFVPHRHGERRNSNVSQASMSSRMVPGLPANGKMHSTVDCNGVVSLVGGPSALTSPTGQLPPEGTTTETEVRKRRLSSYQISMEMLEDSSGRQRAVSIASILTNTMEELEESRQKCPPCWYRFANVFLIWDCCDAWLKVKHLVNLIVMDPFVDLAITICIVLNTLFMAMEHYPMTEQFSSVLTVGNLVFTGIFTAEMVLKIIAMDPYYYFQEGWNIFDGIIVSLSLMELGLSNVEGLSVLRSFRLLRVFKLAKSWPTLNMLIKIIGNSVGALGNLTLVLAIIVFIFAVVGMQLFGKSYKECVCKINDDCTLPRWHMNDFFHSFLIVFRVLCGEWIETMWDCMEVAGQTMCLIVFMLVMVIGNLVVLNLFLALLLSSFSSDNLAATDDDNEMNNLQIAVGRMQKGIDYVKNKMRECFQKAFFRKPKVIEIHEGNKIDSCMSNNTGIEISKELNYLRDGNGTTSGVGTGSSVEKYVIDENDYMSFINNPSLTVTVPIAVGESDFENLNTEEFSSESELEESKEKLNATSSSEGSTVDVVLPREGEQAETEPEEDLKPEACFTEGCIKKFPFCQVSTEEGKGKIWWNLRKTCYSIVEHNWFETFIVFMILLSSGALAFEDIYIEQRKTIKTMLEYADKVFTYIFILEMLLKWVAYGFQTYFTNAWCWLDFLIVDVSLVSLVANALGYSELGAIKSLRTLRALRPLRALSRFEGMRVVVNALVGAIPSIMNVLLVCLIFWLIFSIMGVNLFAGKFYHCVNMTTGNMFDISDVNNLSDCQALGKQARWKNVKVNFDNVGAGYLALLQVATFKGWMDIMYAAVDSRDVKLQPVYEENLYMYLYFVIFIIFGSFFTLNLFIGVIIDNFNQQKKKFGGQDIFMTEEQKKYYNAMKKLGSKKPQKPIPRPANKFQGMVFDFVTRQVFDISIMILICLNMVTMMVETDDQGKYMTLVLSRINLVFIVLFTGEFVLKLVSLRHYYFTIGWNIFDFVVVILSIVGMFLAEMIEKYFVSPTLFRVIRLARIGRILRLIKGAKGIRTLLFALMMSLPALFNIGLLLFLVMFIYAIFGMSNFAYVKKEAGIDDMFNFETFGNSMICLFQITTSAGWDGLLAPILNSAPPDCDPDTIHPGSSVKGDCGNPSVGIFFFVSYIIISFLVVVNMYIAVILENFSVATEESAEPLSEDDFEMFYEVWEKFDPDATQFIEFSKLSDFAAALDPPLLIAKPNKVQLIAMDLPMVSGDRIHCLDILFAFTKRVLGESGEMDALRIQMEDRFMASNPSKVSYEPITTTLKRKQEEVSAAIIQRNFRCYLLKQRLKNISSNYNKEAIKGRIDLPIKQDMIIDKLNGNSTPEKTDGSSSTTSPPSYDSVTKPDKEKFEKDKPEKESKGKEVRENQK
T1 sequence (Q07699 19-218, further chain): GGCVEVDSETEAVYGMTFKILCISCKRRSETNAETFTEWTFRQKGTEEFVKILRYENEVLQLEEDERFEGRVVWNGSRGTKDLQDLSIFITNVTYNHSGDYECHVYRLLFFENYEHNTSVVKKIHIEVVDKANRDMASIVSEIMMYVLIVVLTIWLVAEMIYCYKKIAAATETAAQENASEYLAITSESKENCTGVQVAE
T2 sequence (Q15858 whole entry): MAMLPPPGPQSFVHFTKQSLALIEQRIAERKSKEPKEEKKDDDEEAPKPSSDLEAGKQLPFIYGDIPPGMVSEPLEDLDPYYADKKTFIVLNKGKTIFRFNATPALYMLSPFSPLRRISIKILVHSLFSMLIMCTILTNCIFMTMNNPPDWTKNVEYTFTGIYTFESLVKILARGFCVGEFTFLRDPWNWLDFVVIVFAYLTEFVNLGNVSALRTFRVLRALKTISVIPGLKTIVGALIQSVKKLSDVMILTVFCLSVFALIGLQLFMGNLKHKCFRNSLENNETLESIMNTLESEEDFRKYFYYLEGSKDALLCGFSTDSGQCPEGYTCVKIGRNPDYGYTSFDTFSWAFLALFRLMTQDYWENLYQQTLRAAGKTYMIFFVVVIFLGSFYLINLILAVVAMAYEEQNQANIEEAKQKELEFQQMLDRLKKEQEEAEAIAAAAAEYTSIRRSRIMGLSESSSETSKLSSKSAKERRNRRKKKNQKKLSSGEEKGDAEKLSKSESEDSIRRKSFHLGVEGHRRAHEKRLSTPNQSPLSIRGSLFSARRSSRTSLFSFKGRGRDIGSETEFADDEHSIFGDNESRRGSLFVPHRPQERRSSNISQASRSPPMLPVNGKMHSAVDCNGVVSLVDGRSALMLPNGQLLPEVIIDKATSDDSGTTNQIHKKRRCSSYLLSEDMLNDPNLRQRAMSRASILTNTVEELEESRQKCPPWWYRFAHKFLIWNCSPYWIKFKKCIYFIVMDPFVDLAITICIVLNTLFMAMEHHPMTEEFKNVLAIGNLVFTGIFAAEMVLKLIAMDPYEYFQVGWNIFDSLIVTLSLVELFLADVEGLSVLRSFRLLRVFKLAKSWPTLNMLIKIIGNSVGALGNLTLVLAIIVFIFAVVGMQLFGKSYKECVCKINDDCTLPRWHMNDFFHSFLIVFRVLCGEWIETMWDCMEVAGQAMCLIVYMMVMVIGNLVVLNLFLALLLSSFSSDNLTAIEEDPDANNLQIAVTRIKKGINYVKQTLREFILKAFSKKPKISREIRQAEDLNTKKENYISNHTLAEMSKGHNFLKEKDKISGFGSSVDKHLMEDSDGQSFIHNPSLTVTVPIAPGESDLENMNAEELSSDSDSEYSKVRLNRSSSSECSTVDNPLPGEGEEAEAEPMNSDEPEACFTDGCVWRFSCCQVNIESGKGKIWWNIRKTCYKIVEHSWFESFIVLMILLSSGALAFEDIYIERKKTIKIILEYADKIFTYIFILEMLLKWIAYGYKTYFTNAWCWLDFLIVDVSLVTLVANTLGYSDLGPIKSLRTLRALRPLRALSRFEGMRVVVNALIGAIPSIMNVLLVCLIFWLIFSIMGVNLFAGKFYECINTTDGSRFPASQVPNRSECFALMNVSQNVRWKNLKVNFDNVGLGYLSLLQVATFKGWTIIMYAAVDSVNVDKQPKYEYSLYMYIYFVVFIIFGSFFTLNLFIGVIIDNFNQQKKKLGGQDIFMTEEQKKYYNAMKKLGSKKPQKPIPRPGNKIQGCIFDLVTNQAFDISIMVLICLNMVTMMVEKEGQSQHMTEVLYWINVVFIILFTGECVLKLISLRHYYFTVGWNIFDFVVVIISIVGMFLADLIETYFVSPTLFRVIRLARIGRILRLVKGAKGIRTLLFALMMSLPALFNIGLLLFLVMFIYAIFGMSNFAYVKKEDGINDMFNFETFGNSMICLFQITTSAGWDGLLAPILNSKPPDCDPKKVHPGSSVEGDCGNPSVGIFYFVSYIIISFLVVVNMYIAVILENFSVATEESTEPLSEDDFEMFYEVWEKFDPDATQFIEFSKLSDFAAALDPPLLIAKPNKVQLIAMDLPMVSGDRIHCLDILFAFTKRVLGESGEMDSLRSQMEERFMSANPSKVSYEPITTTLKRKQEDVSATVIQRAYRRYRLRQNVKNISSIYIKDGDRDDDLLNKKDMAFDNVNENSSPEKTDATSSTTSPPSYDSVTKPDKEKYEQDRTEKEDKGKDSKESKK
T2 sequence (Q07699 19-218, further chain): as the sequence (Q07699 19-218, further chain) above

## CC(C)C[C@H](NC(=O)[C@H](Cc1ccc(O)cc1)NC(=O)[C@H](Cc1ccc(O)cc1)NC(=O)[C@H](CCCNC(=N)N)NC(=O)[C@@H]1CSSC[C@@H]2NC(=O)[C@H](CCCCN)NC(=O)[C@H](CC(N)=O)NC(=O)[C@H](CC(N)=O)NC(=O)[C@H](CC(N)=O)NC(=O)[C@@H]3CCCN3C(=O)[C@H](CC(=O)O)NC(=O)[C@@H]3CSSC[C@H](NC(=O)[C@H](C(C)C)NC(=O)[C@H](Cc4ccc(O)cc4)NC(=O)CNC(=O)[C@H](CCC(=O)O)NC(=O)[C@H](CSSC[C@H](NC(=O)CNC(=O)CN)C(=O)N[C@@H](CC(C)C)C(=O)NCC(=O)N[C@@H](Cc4c[nH]c5ccccc45)C(=O)N[C@@H](Cc4ccccc4)C(=O)N[C@@H](CO)C(=O)NCC(=O)N3)NC2=O)C(=O)N[C@@H](Cc2c[nH]cn2)C(=O)N[C@@H](Cc2c[nH]c3ccccc23)C(=O)N[C@@H](CCCCN)C(=O)N[C@@H](Cc2ccc(O)cc2)C(=O)N2CCC[C@H]2C(=O)N[C@@H](Cc2c[nH]c3ccccc23)C(=O)N1)C(=O)O [D1G/D32Y] (H-GGCLGWFSGCDPNNNKCCEGYVCHWKYPWCRYYL-OH; disulfide 3-18, 10-23, 17-30)
hNaV1.3
  IC50: 0.111 µM
hNaV1.7
  IC50: 0.091 µM
hNaV1.2
  IC50: 0.086 µM

## CC(C)C[C@@H]1NC(=O)[C@@H](NC(=O)[C@H](CC(=O)O)NC(=O)CN)CSSC[C@@H]2NC(=O)[C@@H]3CSSC[C@@H](C(=O)N[C@@H](CCCNC(=N)N)C(=O)N[C@@H](Cc4ccc(O)cc4)C(=O)N[C@@H](CC(=O)O)C(=O)N[C@@H](C)C(=O)O)NC(=O)[C@H](Cc4c[nH]c5ccccc45)NC(=O)[C@@H]4CCCN4C(=O)[C@H](Cc4ccc(O)cc4)NC(=O)[C@H](CCCCN)NC(=O)[C@H](Cc4c[nH]c5ccccc45)NC(=O)[C@H](Cc4c[nH]cn4)NC(=O)[C@H](CSSC[C@H](NC(=O)CNC(=O)[C@H](CO)NC(=O)[C@H](Cc4ccccc4)NC(=O)[C@H](Cc4c[nH]c5ccccc45)NC(=O)CNC1=O)C(=O)N[C@@H](CC(=O)O)C(=O)N1CCC[C@H]1C(=O)N[C@@H](CC(N)=O)C(=O)N[C@@H](CC(N)=O)C(=O)N[C@@H](CC(N)=O)C(=O)N[C@@H](CCCCN)C(=O)N3)NC(=O)[C@H](C(C)C)NC(=O)[C@H](Cc1ccc(O)cc1)NC(=O)CNC(=O)[C@H](CCC(=O)O)NC2=O [L33A]
hNaV1.3
  IC50: > 3 µM
hNaV1.7
  IC50: 0.448 µM
hNaV1.2
  IC50: 0.396 µM

## CC(C)C[C@H](NC(=O)[C@H](CC(=O)O)NC(=O)[C@H](Cc1ccc(O)cc1)NC(=O)[C@H](CCCNC(=N)N)NC(=O)[C@@H]1CSSC[C@@H]2NC(=O)[C@H](CCCCN)NC(=O)[C@H](CC(N)=O)NC(=O)[C@H](CC(N)=O)NC(=O)[C@H](CC(N)=O)NC(=O)[C@@H]3CCCN3C(=O)[C@H](CC(=O)O)NC(=O)[C@@H]3CSSC[C@H](NC(=O)[C@H](C(C)C)NC(=O)[C@H](Cc4ccc(O)cc4)NC(=O)CNC(=O)[C@H](CCC(=O)O)NC(=O)[C@H](CSSC[C@H](NC(=O)[C@H](CC(=O)O)NC(=O)CN)C(=O)N[C@@H](CC(C)C)C(=O)NCC(=O)N[C@@H](Cc4c[nH]c5ccccc45)C(=O)N[C@@H](Cc4ccccc4)C(=O)N[C@@H](CCCCN)C(=O)NCC(=O)N3)NC2=O)C(=O)N[C@@H](Cc2c[nH]cn2)C(=O)N[C@@H](Cc2c[nH]c3ccccc23)C(=O)N[C@@H](CCCCN)C(=O)N[C@@H](Cc2ccc(O)cc2)C(=O)N2CCC[C@H]2C(=O)N[C@@H](Cc2c[nH]c3ccccc23)C(=O)N1)C(=O)O [S7K]
hNaV1.3
  IC50: 0.929 µM
hNaV1.7
  IC50: 0.181 µM
hNaV1.2
  IC50: 0.201 µM

## CC(C)C[C@H](NC(=O)[C@H](CC(=O)O)NC(=O)[C@H](Cc1ccc(O)cc1)NC(=O)[C@H](CCCNC(=N)N)NC(=O)[C@@H]1CSSC[C@@H]2NC(=O)[C@H](CCCCN)NC(=O)[C@H](CC(N)=O)NC(=O)[C@H](CC(N)=O)NC(=O)[C@H](CC(N)=O)NC(=O)[C@@H]3CCCN3C(=O)[C@H](CC(=O)O)NC(=O)[C@@H]3CSSC[C@H](NC(=O)[C@H](C(C)C)NC(=O)[C@H](Cc4ccc(O)cc4)NC(=O)CNC(=O)[C@H](CCC(=O)O)NC(=O)[C@H](CSSC[C@H](NC(=O)[C@H](CC(=O)O)NC(=O)CN)C(=O)N[C@@H](CC(C)C)C(=O)NCC(=O)N[C@@H](Cc4c[nH]c5ccccc45)C(=O)N[C@@H](Cc4ccccc4)C(=O)N[C@@H](CO)C(=O)NCC(=O)N3)NC2=O)C(=O)N[C@@H](Cc2c[nH]cn2)C(=O)N[C@@H](Cc2c[nH]c3ccccc23)C(=O)N[C@@H](CCCCN)C(=O)N[C@@H](Cc2ccc(O)cc2)C(=O)N2CCC[C@H]2C(=O)N[C@@H](C)C(=O)N1)C(=O)O [W28A] (H-GDCLGWFSGCDPNNNKCCEGYVCHWKYPACRYDL-OH; disulfide 3-18, 10-23, 17-30 (inferred); N-terminus and C-terminus assumed)
hNaV1.3
  IC50: > 3 µM
hNaV1.7
  IC50: > 3 µM
hNaV1.7; relative to wild type rSsp1a
  Loss (reduction) in potency vs rSsp1a at hNaV1.7: ≥ 10 fold
hNaV1.2
  IC50: > 3 µM
hNaV1.2; relative to wild type rSsp1a
  Loss (reduction) in potency vs rSsp1a at hNaV1.2: ≥ 10 fold

## CC(C)C[C@H](NC(=O)[C@H](CC(=O)O)NC(=O)[C@H](Cc1ccc(O)cc1)NC(=O)[C@H](CCCNC(=N)N)NC(=O)[C@@H]1CSSC[C@@H]2NC(=O)[C@H](CCCCN)NC(=O)[C@H](CC(N)=O)NC(=O)[C@H](CC(N)=O)NC(=O)[C@H](CC(N)=O)NC(=O)[C@@H]3CCCN3C(=O)[C@H](CC(=O)O)NC(=O)[C@@H]3CSSC[C@H](NC(=O)[C@H](C(C)C)NC(=O)[C@H](Cc4ccc(O)cc4)NC(=O)CNC(=O)[C@H](CCC(=O)O)NC(=O)[C@H](CSSC[C@H](NC(=O)[C@H](CC(=O)O)NC(=O)CN)C(=O)N[C@@H](CC(C)C)C(=O)NCC(=O)N[C@@H](Cc4c[nH]c5ccccc45)C(=O)N[C@@H](Cc4ccccc4)C(=O)N[C@@H](CCCNC(=N)N)C(=O)NCC(=O)N3)NC2=O)C(=O)N[C@@H](Cc2c[nH]cn2)C(=O)N[C@@H](Cc2c[nH]c3ccccc23)C(=O)N[C@@H](CCCCN)C(=O)N[C@@H](Cc2ccc(O)cc2)C(=O)N2CCC[C@H]2C(=O)N[C@@H](Cc2c[nH]c3ccccc23)C(=O)N1)C(=O)O [S7R]
hNaV1.3
  IC50: 0.333 µM
hNaV1.7
  IC50: 0.094 µM
hNaV1.2
  IC50: 0.153 µM

## CC(C)C[C@H](NC(=O)[C@H](CC(=O)O)NC(=O)[C@H](Cc1ccc(O)cc1)NC(=O)[C@H](CCCNC(=N)N)NC(=O)[C@@H]1CSSC[C@@H]2NC(=O)[C@H](CCCCN)NC(=O)[C@H](CC(N)=O)NC(=O)[C@H](CC(N)=O)NC(=O)[C@H](CC(N)=O)NC(=O)[C@@H]3CCCN3C(=O)[C@H](CC(=O)O)NC(=O)[C@@H]3CSSC[C@H](NC(=O)[C@H](C(C)C)NC(=O)[C@H](Cc4ccc(O)cc4)NC(=O)CNC(=O)[C@H](CCC(=O)O)NC(=O)[C@H](CSSC[C@H](NC(=O)[C@H](CC(=O)O)NC(=O)CN)C(=O)N[C@@H](CC(C)C)C(=O)NCC(=O)N[C@@H](Cc4c[nH]c5ccccc45)C(=O)N[C@@H](Cc4ccccc4)C(=O)N[C@@H](CO)C(=O)NCC(=O)N3)NC2=O)C(=O)N[C@@H](Cc2c[nH]cn2)C(=O)N[C@@H](Cc2c[nH]c3ccccc23)C(=O)N[C@@H](CCCCN)C(=O)N[C@@H](Cc2ccc(O)cc2)C(=O)N[C@@H](C)C(=O)N[C@@H](Cc2c[nH]c3ccccc23)C(=O)N1)C(=O)O [P27A]
hNaV1.3
  IC50: > 3 µM
hNaV1.7
  IC50: 0.166 µM
hNaV1.2
  IC50: 0.27 µM

## CC(C)C[C@H](NC(=O)[C@H](CC(=O)O)NC(=O)[C@H](Cc1ccc(O)cc1)NC(=O)[C@H](CCCNC(=N)N)NC(=O)[C@@H]1CSSC[C@@H]2NC(=O)[C@H](CCCCN)NC(=O)[C@H](CC(N)=O)NC(=O)[C@H](CC(N)=O)NC(=O)[C@H](CC(N)=O)NC(=O)[C@@H]3CCCN3C(=O)[C@H](CC(=O)O)NC(=O)[C@@H]3CSSC[C@H](NC(=O)[C@H](C(C)C)NC(=O)[C@H](C)NC(=O)CNC(=O)[C@H](CCC(=O)O)NC(=O)[C@H](CSSC[C@H](NC(=O)[C@H](CC(=O)O)NC(=O)CN)C(=O)N[C@@H](CC(C)C)C(=O)NCC(=O)N[C@@H](Cc4c[nH]c5ccccc45)C(=O)N[C@@H](Cc4ccccc4)C(=O)N[C@@H](CO)C(=O)NCC(=O)N3)NC2=O)C(=O)N[C@@H](Cc2c[nH]cn2)C(=O)N[C@@H](Cc2c[nH]c3ccccc23)C(=O)N[C@@H](CCCCN)C(=O)N[C@@H](Cc2ccc(O)cc2)C(=O)N2CCC[C@H]2C(=O)N[C@@H](Cc2c[nH]c3ccccc23)C(=O)N1)C(=O)O [Y20A]
hNaV1.3
  IC50: > 3 µM
hNaV1.3; alanine mutant vs rSsp1a
  Activity at hNaV1.3 (in words): inactive
hNaV1.7
  IC50: 1.27 µM
hNaV1.2
  IC50: 1.84 µM

## CC(C)C[C@H](NC(=O)[C@H](CC(=O)O)NC(=O)[C@H](Cc1ccc(O)cc1)NC(=O)[C@H](CCCNC(=N)N)NC(=O)[C@@H]1CSSC[C@@H]2NC(=O)[C@H](CCCCN)NC(=O)[C@H](CC(N)=O)NC(=O)[C@H](CC(N)=O)NC(=O)[C@H](CC(N)=O)NC(=O)[C@@H]3CCCN3C(=O)[C@H](CC(=O)O)NC(=O)[C@@H]3CSSC[C@H](NC(=O)[C@H](C(C)C)NC(=O)[C@H](Cc4ccc(O)cc4)NC(=O)CNC(=O)[C@H](CCC(=O)O)NC(=O)[C@H](CSSC[C@H](NC(=O)[C@H](CC(=O)O)NC(=O)CN)C(=O)N[C@@H](CC(C)C)C(=O)NCC(=O)N[C@@H](Cc4c[nH]c5ccccc45)C(=O)N[C@@H](Cc4ccccc4)C(=O)N[C@@H](CO)C(=O)NCC(=O)N3)NC2=O)C(=O)N2CCC[C@H]2C(=O)N[C@@H](Cc2c[nH]c3ccccc23)C(=O)N[C@@H](CCCCN)C(=O)N[C@@H](Cc2ccc(O)cc2)C(=O)N2CCC[C@H]2C(=O)N[C@@H](Cc2c[nH]c3ccccc23)C(=O)N1)C(=O)O [H23P] (H-GDCLGWFSGCDPNNNKCCEGYVCPWKYPWCRYDL-OH; disulfide 3-18, 10-23, 17-30 (inferred); N-terminus and C-terminus assumed)
hNaV1.3
  IC50: > 3 µM
hNaV1.7
  IC50: > 3 µM
hNaV1.2
  IC50: > 3 µM
